# Source: patent US11464738B2, “Ionic liquid-based nanoemulsion formulation for the efficient delivery of hydrophilic and hydrophobic therapeutic agents” (Wisconsin Alumni Research Foundation, priority 2018, dated 2022)
# Entries after “also recorded” stand apart in the source; their conditions may differ.
# Columns and labels:
# [1] = literature value; cited from earlier work
# zebrafish (Danio rerio) = experiment: Embryo-larval zebrafish developmental toxicity assay; type: in vivo; conditions: for in vivo toxicity in zebrafish (in words): developmental toxicity assay
# Procedure: In Vivo Developmental Toxicity Study. An embryo-larval zebrafish (Danio rerio) model was used to evaluate the toxicity of the novel dicationic cholinium-based ionic liquid. The following protocol was taken from previously published protocol, analyzing the toxicity of a novel triphilic polymers for use as a component in a nanoemulsion.^1 Zebrafish of the AB strain were obtained from Dr. Michael Taylor at the University of Wisconsin-Madison School of Pharmacy, where the fish were cultured until sexual maturation. Zebrafish were maintained in a light/dark cycle of 14:10 h at 28.5° C. in egg water (0.03% Instant Ocean, Blacksburg, Va., USA). The adult fish were fed Anemia nauplii twice daily. Embryos were obtained from adult fish with a ratio of 1:2 for female to male. Six breeding groups were placed in separate spawning aquariums, equipped with a mesh bottom to prevent the eggs from being cannibalized. Crossing was induced in the morning. After one hour, eggs free of macroscopically discernible symptoms of infection and disease were collected, rinsed with egg water, and transferred into Petri dishes until chemical exposure. The embryo-larval toxicity assay was subsequently carried out. 8 fertilized eggs at 2 hours post fertilization (hpf) stage were added to a 24-well plate. Each well was filled with eggs and contained 600 μL of egg water. Six concentrations plus two controls (negative and positive) were plated. For analysis of [DC-7][2Br], sodium bis(trifluoromethylsulfonyl)imide, and [DC-7][2NTf2] containing nanoemulsion the concentrations analyzed were 1 mM, 333 μM, 111 μM, 37 μM, 12.3 μM, and 4.1 μM. 1.5 mL of [DC-7][2NTf2] was added to a 15 mL conical centrifuge tube followed by 1.5 mL of egg water. The sample was allowed to sit for 6 days prior to use. Each day, the sample was sonicated at 40° C. for 6 hours and then allowed to remain at room temperature for 18 hours. After 6 days, the sample was centrifuged at 2000 rpm for 5 minutes to ensure complete sedimentation of the ionic liquid. 1.2 mL of egg water was removed and served as the stock solution. This served as the highest concentration sample. Integration of the internal standard and [DC-7][2NTf2] in the QNMR sample allowed for quantitation of the concentration of [DC-7][2NTf2] present in the stock solution used for the zebrafish viability assay. The concentrations analyzed for [DC-7][2NTf2] sample were 7.11 mM, 3.56 mM, 1.78 mM, 889 μM, 444 μM, and 222 μM.
# The plates were covered and incubated at 28.5° C. in a light/dark cycle of 14:10 throughout the 96 hpf exposure period. The observations of zebrafish development were made directly in the well using a stereomicroscope (Nikon SMZ18) every 24 hours. The end points that were selected to monitor the effects of [DC-7][2Br], sodium bis(trifluoromethylsulfonyl)imide, [DC-7][2NTf2] saturated water solution and nanoemulsion included mortality, spontaneous movement, hatching success, pericardial edema, and curved body axis. Embryos and larvae were considered dead when no heartbeat was observed. The number of hatched embryos and a cumulative mortality tally were recorded every 24 h after 2 hpf. At 96 hpf, following the final observations, representative larvae for [DC-7][2Br] and [DC-7][2NTf2] saturated egg water were anesthetized with 0.4% tricaine mesylate solution and mounted on Petri dishes using low melting point agarose. These larvae were then photographed using a high-definition color microscope camera (Nikon DSFi2). Finally, all larvae used for the analysis were euthanized following.
# [2] = UV/vis spectroscopy of the aggregation state of AmB; type: physicochemical; conditions: for aggregation state of AmB in the medium (in words): AmB solubilized in the ionic liquid or ionic liquid mixture named
# Procedure: Measuring absorbance of Amphotericin B (AmB) at distinct wavelengths using UV/vis spectroscopy provides insight into its degree of self-aggregation. Absorption spectra were obtained on a Varian Cary 100Bio UV-vis spectrometer (Varian, Palto Alto, Calif.) at 25° C. using a quartz coverslip with a 0.1 mm pathlength (Starna Cells, Inc., Atascadero, Calif.) or a 1 mm pathlength quartz cuvette (Starna Cells, Inc., Atascadero, Calif.). Absorbance was measured from 300 nm to 500 nm. Samples were prepared by direct addition of AmB powder to neat ionic liquids. Ionic liquids solid at room temperature were first melted using a water bath at 60° C. prior to addition of AmB powder. After addition of solid drug, (1) 100 μL of methanol was then added to the IL mixture and the mixture was stirred at room temperature for 1 hour. (2) The drug/IL mixture was then placed under rotary evaporation in a water bath with at a temperature of 60° C. for 1 hour. (3) The drug/IL mixture was then placed under high vacuum for 1 hour. (4) The drug/IL mixture was then allowed to stir for 1 hour. This process (steps 1-4) was repeated until all drug visibly was solubilized. The drug/IL mixture was then placed under rotary evaporation at 60° C. for an additional hour and then under high vacuum for 24 hours prior to use to ensure removal of all methanol. Samples were shielded from light prior to analysis. Neat ionic liquids served as the baseline for AmB samples solubilized in ionic liquid. Dilution samples were performed using 1×PBS for dilution. Analysis of AmB nanoemulsion required a nanoemulsion without drug as the baseline to correct for inherent scattering of the prepared nanoemulsion.
# [3] = Quantitative 19F NMR (QNMR) water-solubility of hydrophobic ionic liquids; type: physicochemical; conditions: saturated D2O; for solubility at 6 days: 25 °C, water, thermodynamic from solid, read-out: Ionic Liquid Concentration in D2O (water-solubility)
# Procedure: Example 12A: Quantitative ^19F NMR spectroscopy (QNMR) for determination of concentration of hydrophobic ionic liquids in a water-solution for comparison of water-solubility of hydrophobic ionic liquids.
# ^19F NMR spectra was measured using a Varian UI 500 MHz spectrometer equipped with a Nalorac Quad Nucleus DD probe (qn6121, 5 mm). The internal temperature of the NMR spectrometer was maintained at 25° C. Sodium trifluoroacetate was used as an internal standard was employed in order to determine the concentration of [DC-7][2NTf2]. The internal standard was prepared in D2O and the stock solution was allowed to sonicate at 30° C. for 4 hours prior to use in order to ensure complete dissolution of sodium trifluoroacetate. Prior to quantitative study, the T1 value of both [DC-7][2NTf2] and sodium trifluoroacetate were determined using an inversion recover experiment acquired with 12 independent quadratically spaced variable (tau) values (values from 0.06944-10). The T1 value was calculated in order to ensure that both signals fully relaxed between pulses. The following parameters were employed for acquisition of T1 spectra: 500 MHz; spectra width, 107962.2 Hz; acquisition time, 1.004 s; number of points, 216688; relaxation delay, 18.996 s; number of transients, 1; 90° pulse width, 17.1 μs. X-Win32 software was used to calculate the T1 value and processing included a line broadening of 1 Hz. The T1 value of the sodium trifluoroacetate and [DC-7][2NTf2] was determined to be 2.76±0.172 seconds and 2.69±0.0885 seconds, respectively. After determination of T1, the QNMR study was completed on an optimized spectrum. […] The acquired spectrum has a signal to noise ratio of 4700, which exceeded the desired 3000 needed for quantitation. […] 0.5 mL of D2O was removed and then subsequently analyzed. Integration of the internal standard and [DC-7][2NTf2] allowed for quantitation of the concentration of [DC-7][2NTf2] present in the stock solution used for the zebrafish viability assay.
# [4] = Viscosity (Brookfield viscometer); type: physicochemical; conditions: 30.2 ° C.
# Procedure: A Brookfield viscometer (Model RVDV-1) was used to analyze the ionic liquids at 30° C. The spindle used on the instrument was CPA-41Z. After addition of 2 mL of sample to the instrument cup, the cup was warmed until all IL samples were completely transparent before beginning the measurement. The RPM was adjusted per sample in order to ensure the percent torque applied per sample was in a consistent range.
compound,measurement,setting,value
"C[C@@H]1[C@H](O)[C@@H](C)/C=C/C=C/C=C/C=C/C=C/C=C/C=C/[C@H](O[C@@H]2O[C@H](C)[C@@H](O)[C@H](N)[C@@H]2O)C[C@@H]2O[C@](O)(C[C@@H](O)C[C@@H](O)[C@H](O)CC[C@@H](O)C[C@@H](O)CC(=O)O[C@H]1C)C[C@H](O)[C@H]2C(=O)O [AmB, Amphotericin B]",water solubility,[1],< 1.0 µg/mL
"O=C(O)C(F)(F)C(F)(F)C(F)(F)C(F)(F)C(F)(F)C(F)(F)C(F)(F)F [PFOA, perfluorooctanoic acid, reference compound]","zebrafish malformations, microscope images (in words)","zebrafish (Danio rerio); 96 hours post-fertilization, concentration not stated (FIG. 64)",spinal curvature
"CCCCCC(=O)[O-].C[N+](C)(C)CCO [[Chol][Hex], cholinium hexanoate]",aggregation state of AmB in the medium (in words),[2],solely the monomeric form
same,aggregation state of AmB upon dilution (in words),[2]; dilution with phosphate-buffered saline / saline,shifts from primarily the monomeric to the aggregated form; also recorded: concentration dependent aggregation; also recorded: shifted from monomeric to aggregated
C[N+](C)(CCO)CCCCCCC[N+](C)(C)CCO [[DC-7][2NTf2]],aggregation state of AmB in the medium (in words),[2],mixture of the aggregated form and monomeric form; also recorded: mixture of monomeric and aggregated AmB
same,solubility at 6 days,[3],10.7 mM
same,Ionic Liquid Concentration in D2O (water-solubility),[3]; 25° C.,6 mM
same,zebrafish malformations (in words),"zebrafish (Danio rerio); 889 μM, 96 hours post fertilization",no malformations
same,zebrafish survival rate / viability,"zebrafish (Danio rerio); 889 μM, dilution of saturated water solution, 96 hours post fertilization",100%
same,in vivo toxicity in zebrafish (in words),zebrafish (Danio rerio); 96 hours post fertilization,does not exhibit toxicity; also recorded: minimal toxicity
same,in vivo toxicity in zebrafish (in words),"zebrafish (Danio rerio); 96 hours post fertilization, listed as [CDIL-7][NTf2]",extremely low
C[N+](C)(CCO)CCOCCOCC[N+](C)(C)CCO [[DC-ether][2NTf2]],solubility at 6 days,[3],13 mM
same,Viscosity,[4],891.5 cP
"O=S(=O)([N-]S(=O)(=O)C(F)(F)F)C(F)(F)F.[Na+] [sodium bis(trifluoromethylsulfonyl)imide, reference compound]",zebrafish survival rate,"zebrafish (Danio rerio); 111 μM, 96 hours post fertilization",87%
same,in vivo toxicity in zebrafish (in words),zebrafish (Danio rerio); 96 hours post fertilization,minimal toxicity
